Source: the supplement of paper PMC11061612

What was measured:
[1] = test system: KMOE-2 (Acute Myeloid Leukemia); assay: combination Emax (second highest fraction inhibited in the dose matrix, 72 h); higher = more inhibition; extreme values may be limits of the assay
Procedure, shortened: (§1)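 Bliss excess equals the observed combination effect minus the expected value EA + EB − EA·EB, where EA and EB are the effects of each agent alone. Combination Emax is the second-highest inhibition within the matrix. Inhibition was scaled from CellTiter-Glo 2.0 luminescence, with 0 set by vehicle wells and 1 by blank wells, after 72 hours of two-drug dosing of cells plated in 1536-well plates.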

[2] = test system: KYSE-450 (Esophageal Squamous Cell Carcinoma); assay: as above
Procedure, shortened: as §1

[3] = test system: NCI-H1915 (Non-Small Cell Lung Carcinoma); assay: as above
Procedure, shortened: as §1

[4] = test system: KARPAS-299 (T-Cell Non-Hodgkin's Lymphoma); assay: as above
Procedure, shortened: as §1

[5] = test system: EFM-19 (Breast Carcinoma); assay: as above
Procedure, shortened: as §1

[6] = test system: SU8686 (Pancreatic Carcinoma); assay: as above
Procedure, shortened: as §1

[7] = test system: C-4-I (Cervical Carcinoma); assay: as above
Procedure, shortened: as §1

[8] = test system: RF-48 (B-Cell Non-Hodgkin's Lymphoma); assay: as above
Procedure, shortened: as §1

[9] = test system: NEC8 (Other Solid Carcinomas); assay: as above
Procedure, shortened: as §1

[10] = test system: TK10 (Kidney Carcinoma); assay: as above
Procedure, shortened: as §1

[11] = test system: OVCAR-4 (Ovarian Carcinoma); assay: as above
Procedure, shortened: as §1

[12] = test system: TE-1 (Esophageal Squamous Cell Carcinoma); assay: as above
Procedure, shortened: as §1

[13] = test system: SCC-15 (Oral Cavity Carcinoma); assay: as above
Procedure, shortened: as §1

[14] = test system: UACC-62 (Melanoma); assay: as above
Procedure, shortened: as §1

[15] = test system: Ca9-22 (Head and Neck Carcinoma); assay: as above
Procedure, shortened: as §1

[16] = test system: ACHN (Kidney Carcinoma); assay: as above
Procedure, shortened: as §1

[17] = test system: VA-ES-BJ (Other Solid Carcinomas); assay: as above
Procedure, shortened: as §1

[18] = test system: AMO-1 (Plasma Cell Myeloma); assay: as above
Procedure, shortened: as §1

[19] = test system: BT-549 (Breast Carcinoma); assay: as above
Procedure, shortened: as §1

[20] = test system: EW-24 (Ewing's Sarcoma); assay: Bliss excess, mean over the matrix (fraction); higher = more synergy
Procedure, shortened: as §1

Row | SMILES | combination Emax [1] | combination Emax [2] | combination Emax [3] | combination Emax [4] | combination Emax [5] | combination Emax [6] | combination Emax [7] | combination Emax [8] | combination Emax [9] | combination Emax [10] | combination Emax [11] | combination Emax [12] | combination Emax [13] | combination Emax [14] | combination Emax [15] | combination Emax [16] | combination Emax [17] | combination Emax [18] | combination Emax [19] | Bliss excess [20]
1 | COc1nnc2ccc(N3CCC(c4ccc(OCCN5CCN(C)C(=O)[C@H]5C)cc4)CC3)nn12 [AZD5153] + C=CCn1c(=O)c2cnc(Nc3ccc(N4CCN(C)CC4)cc3)nc2n1-c1cccc(C(C)(C)O)n1 [AZD1775] (first compound max 1 µM, partner max 1 µM) | 0.971 | 0.519 | 0.678 | 0.919 | 0.573 | 0.171 | 0.838 | 0.558 | 0.913 | 0.604 | 0.583 | 0.591 | 0.435 | 0.577 | 0.672 | 0.835 | 0.724 | 0.978 | 0.732 | -0.0125
2 | CN(C)CCCOc1ccc(-c2ccc3ncc4c(c3c2)n(C2CCOCC2)c(=O)n4C)cn1 [AZD0156] + O=C(c1cc(Cc2n[nH]c(=O)c3ccccc23)ccc1F)N1CCN(C(=O)C2CC2)CC1 [Olaparib] (first compound max 3 µM, partner max 3 µM) | 0.239 | 0.159 | 0.231 | 0.467 | 0.533 | 0.146 | 0.362 | 0.319 | 0.277 | 0.197 | 0.149 | 0.0888 | 0.277 | 0.183 | 0.465 | 0.338 | 0.284 | 0.481 | 0.102 | -0.0624
3 | CC1(C)CCC(CN2CCN(c3ccc(C(=O)NS(=O)(=O)c4ccc(NCC5CCOCC5)c([N+](=O)[O-])c4)c(Oc4cnc5[nH]ccc5c4)c3)CC2)=C(c2ccc(Cl)cc2)C1 [Venetoclax] + COc1cc(Nc2ncc3c(n2)-c2ccc(Cl)cc2C(c2c(F)cccc2OC)=NC3)ccc1C(=O)O [Alisertib] (first compound max 1 µM, 7x7, partner max 10 µM) | 0.928 | 0.437 | 0.455 | 0.762 | 0.557 | 0.117 | 0.804 | 0.59 | 0.183 | 0.35 | 0.344 | 0.635 | 0.378 | 0.314 | 0.706 | 0.698 | 0.505 | 0.868 | 0.529 | 0.0205
4 | NC1(C(=O)N[C@@H](CCO)c2ccc(Cl)cc2)CCN(c2ncnc3[nH]ccc23)CC1 [Capivasertib] + COc1nnc2ccc(N3CCC(c4ccc(OCCN5CCN(C)C(=O)[C@H]5C)cc4)CC3)nn12 [AZD5153] (first compound max 10 µM, 7x7, partner max 1 µM) | 0.831 | 0.324 | 0.588 | 0.741 | 0.538 | 0.0398 | 0.749 | 0.474 | 0.951 | 0.63 | 0.398 | 0.485 | 0.508 | 0.56 | 0.799 | 0.672 | 0.487 | 0.911 | 0.602 | 0.0532
5 | CC(=O)Nc1cccc(-n2c(=O)n(C3CC3)c(=O)c3c(Nc4ccc(I)cc4F)n(C)c(=O)c(C)c32)c1 [Trametinib] + Cc1nc(-c2cn3c(n2)-c2ccc(-c4cnn(C(C)(C)C(N)=O)c4)cc2OCC3)n(C(C)C)n1 [Taselisib] (first compound max 1 µM, 7x7, partner max 10 µM) | 1 | 0.753 | 1 | 0.639 | 0.665 | 0.481 | 0.94 | 0.345 | 0.674 | 0.769 | 0.518 | 0.75 | 1 | 0.996 | 0.936 | 0.643 | 0.687 | 0.812 | 0.497 | 0.0141
6 | COc1nnc2ccc(N3CCC(c4ccc(OCCN5CCN(C)C(=O)[C@H]5C)cc4)CC3)nn12 [AZD5153] + CC1(C)CCC(CN2CCN(c3ccc(C(=O)NS(=O)(=O)c4ccc(NCC5CCOCC5)c([N+](=O)[O-])c4)c(Oc4cnc5[nH]ccc5c4)c3)CC2)=C(c2ccc(Cl)cc2)C1 [Venetoclax] (first compound max 1 µM, 7x7, partner max 1 µM) | 0.847 | 0.332 | 0.432 | 0.781 | 0.359 | 0.0794 | 0.514 | 0.53 | 0.831 | 0.594 | 0.444 | 0.4 | 0.335 | 0.605 | 0.66 | 0.535 | 0.5 | 0.907 | 0.518 | -0.0962
7 | COc1cccc(OCCCN)c1-c1cc(Nc2cnc(C#N)cn2)n[nH]1 [Prexasertib] + CCc1c2c(nc3ccc(O)cc13)-c1cc3c(c(=O)n1C2)COC(=O)[C@]3(O)CC [SN-38] (first compound max 1 µM, 7x7, partner max 0.3 µM) | 0.999 | 0.996 | 0.89 | 0.992 | 0.841 | 0.448 | 0.999 | 0.804 | 1 | 0.691 | 0.9 | 0.902 | 0.802 | 0.817 | 0.985 | 0.931 | 0.914 | 0.968 | 0.864 | -0.0615
